Primed or numbered codes have the meaning given here. *: point of attachment. PEG1′ = PEG spacer, n=1 in acetyl-PEGn N-terminus; PEG2′ = PEG spacer, n=2 in acetyl-PEGn N-terminus; PEG3′ = PEG spacer, n=3 in acetyl-PEGn N-terminus; PEG4′ = PEG spacer, n=4 in acetyl-PEGn N-terminus; PEG5′ = PEG spacer, n=5 in acetyl-PEGn N-terminus; Palmitoyl = CCCCCCCCCCCCCCCC(=O)*
Tested on: inflammation produced by intraplantar injection of carrageenan
Assay: carrageenan test: paw volume increase after intraplantar carrageenan, measured with a plethysmometer
Format: in vivo
Excerpt: Carrageenan is an irritant whose administration causes a powerful inflammation four hours after administration. The inflammatory process can be easily discerned as an increase in the volume of the paw that received carrageenan, measured with a plethysmometer. […] Therefore, the peptides of this invention have anti-inflammatory activity in vivo.

[1] = peptides 5 mg/kg (im), decrease in inflammation standardized to positive control diclofenac

| Compound | ANTI-INFLAMMATORY ACTIVITY (diclofenac 10 mg/kg, positive control used as the standard) [%] | ANTI-INFLAMMATORY ACTIVITY [1] [%] |
| --- | --- | --- |
| O=C(O)Cc1ccccc1Nc1c(Cl)cccc1Cl [diclofenac, reference compound] | 100 | – |
| Ac-PEG1-SEQ ID No. 11-NH2: acetyl-PEGn (n=1) N-terminus, amide C-terminus; SNAP-25 residues 12 to 17 (SEQ ID No. 11) ({Ac-PEG1′}-EEMQRR-NH2; listed as Homo sapiens) | – | 21 |
| Ac-PEG2-SEQ ID No. 11-NH2: acetyl-PEGn (n=2) N-terminus, amide C-terminus; SNAP-25 residues 12 to 17 (SEQ ID No. 11) ({Ac-PEG2′}-EEMQRR-NH2; listed as Homo sapiens) | – | 29 |
| Ac-PEG3-SEQ ID No. 11-NH2: acetyl-PEGn (n=3) N-terminus, amide C-terminus; SNAP-25 residues 12 to 17 (SEQ ID No. 11) ({Ac-PEG3′}-EEMQRR-NH2; listed as Homo sapiens) | – | 42 |
| Ac-PEG4-SEQ ID No. 11-NH2: acetyl-PEGn (n=4) N-terminus, amide C-terminus; SNAP-25 residues 12 to 17 (SEQ ID No. 11) ({Ac-PEG4′}-EEMQRR-NH2; listed as Homo sapiens) | – | 23 |
| Ac-PEG5-SEQ ID No. 11-NH2: acetyl-PEGn (n=5) N-terminus, amide C-terminus; SNAP-25 residues 12 to 17 (SEQ ID No. 11) ({Ac-PEG5′}-EEMQRR-NH2; listed as Homo sapiens) | – | 53 |
| Ac-SEQ ID No. 4-NH2: acetyl N-terminus, amide C-terminus; SNAP-25 residues 10 to 22 (SEQ ID No. 4) (Ac-ELEEMQRRADQLA-NH2; listed as Homo sapiens) | – | 65 |
| Ac-SEQ ID No. 9-NH2: acetyl N-terminus, amide C-terminus; SNAP-25 residues 26 to 38 (SEQ ID No. 9) (Ac-LESTRRMLQLVEE-NH2; listed as Homo sapiens) | – | 98 |
| Ac-SEQ ID No. 11-NH2: acetyl N-terminus, amide C-terminus; SNAP-25 residues 12 to 17 (SEQ ID No. 11) (Ac-EEMQRR-NH2; listed as Homo sapiens) | – | 49 |
| Ac-SEQ ID No. 26-NH2: acetyl N-terminus, amide C-terminus; SNAP-25-derived sequence SEQ ID No. 26 (Ac-EEMQRRA-NH2; listed as Homo sapiens) | – | 14 |
| Palm-SEQ ID No. 4-NH2: palmitoyl N-terminus, amide C-terminus; SNAP-25 residues 10 to 22 (SEQ ID No. 4) (Palmitoyl-ELEEMQRRADQLA-NH2; SMILES CCCCCCCCCCCCCCCC(=O)N[C@@H](CCC(=O)O)C(=O)N[C@@H](CC(C)C)C(=O)N[C@@H](CCC(=O)O)C(=O)N[C@@H](CCC(=O)O)C(=O)N[C@@H](CCSC)C(=O)N[C@@H](CCC(N)=O)C(=O)N[C@@H](CCCNC(=N)N)C(=O)N[C@@H](CCCNC(=N)N)C(=O)N[C@@H](C)C(=O)N[C@@H](CC(=O)O)C(=O)N[C@@H](CCC(N)=O)C(=O)N[C@@H](CC(C)C)C(=O)N[C@@H](C)C(N)=O; listed as Homo sapiens) | – | 58 |
| Palm-SEQ ID No. 9-NH2: palmitoyl N-terminus, amide C-terminus; SNAP-25 residues 26 to 38 (SEQ ID No. 9) (Palmitoyl-LESTRRMLQLVEE-NH2; SMILES CCCCCCCCCCCCCCCC(=O)N[C@@H](CC(C)C)C(=O)N[C@@H](CCC(=O)O)C(=O)N[C@@H](CO)C(=O)N[C@H](C(=O)N[C@@H](CCCNC(=N)N)C(=O)N[C@@H](CCCNC(=N)N)C(=O)N[C@@H](CCSC)C(=O)N[C@@H](CC(C)C)C(=O)N[C@@H](CCC(N)=O)C(=O)N[C@@H](CC(C)C)C(=O)N[C@H](C(=O)N[C@@H](CCC(=O)O)C(=O)N[C@@H](CCC(=O)O)C(N)=O)C(C)C)[C@@H](C)O; listed as Homo sapiens) | – | 77 |
| Palm-SEQ ID No. 11-MH2: palmitoyl N-terminus, amide C-terminus; SNAP-25 residues 12 to 17 (SEQ ID No. 11) (Palmitoyl-EEMQRR-NH2; SMILES CCCCCCCCCCCCCCCC(=O)N[C@@H](CCC(=O)O)C(=O)N[C@@H](CCC(=O)O)C(=O)N[C@@H](CCSC)C(=O)N[C@@H](CCC(N)=O)C(=O)N[C@@H](CCCNC(=N)N)C(=O)N[C@@H](CCCNC(=N)N)C(N)=O; listed as Homo sapiens) | – | 81 |

Reference: patent US20190184054A1, “COMPOSITIONS FOR THE TREATMENT OF PAIN AND/OR INFLAMMATION” (BCN PEPTIDES. S.A., priority 2008, published 2019)
